In patent US10947575B2, “Rapid antimicrobial susceptibility test, based on an analysis of changes in morphology and growth pattern of a microbial cell under different concentrations of various antimicrobial agents, and automated cell image analysis system therefor” (priority 2014, dated 2021):
Where two headings read alike, the source gives them in different places.

Columns and labels:
[1] = tested on: P. aeruginosa ATCC 27853; details: time to result 16~20 hr; cited from earlier work
[2] = tested on: E. coli ATCC 25922; details: time to result 16~20 hr; cited from earlier work
[3] = tested on: P. aeruginosa ATCC 27853; experiment: AST by analysis of changes in morphology and growth pattern of a microbial cell (MAC 2.0 chip imaging); assay type: cell-based; details: Normal / Filament / Swelling
Description: (§1) Four reference strains (E. coli ATCC 25922, S. aureus ATCC 29213, P. aeruginosa ATCC 27853, and E. faecalis ATCC 29212) were used as objective strains, in accordance with Clinical and Laboratory Standards Institute (CLSI) guidelines. […] The bacterial cell in MAC 2.0TM (QuantaMatrix) was monitored through a S Plan Fluor ELWD 60X (NA 1.49) lens of an inverted optical microscope (Eclipse Ti-Nikon, IX71-Olympus) provided in a heating system, and then, an electron multiplying CCD camera (QuantEM:512SC Photometrics for Eclipse Ti) was used to obtain images of a region where is adjacent to an interface between the agarose well of MAC 2.0TM and the antimicrobial agents well, over time.

[4] = tested on: E. coli ATCC 25922; experiment: as above; assay type: cell-based; details: Normal / Filament / Swelling
Description: as §1

[5] = tested on: P. aeruginosa ATCC 27853; experiment: MIC by the proposed method (SCMA), from morphology and growth pattern changes; assay type: cell-based; details: time to result 3 hr
Description: (§2) The bacterial cell in MAC 2.0™ (QuantaMatrix) was monitored through a S Plan Fluor ELWD 60X (NA 1.49) lens of an inverted optical microscope (Eclipse Ti—Nikon, IX71—Olympus) provided in a heating system, and then, an electron multiplying CCD camera (QuantEM:512SC Photometrics for Eclipse Ti) was used to obtain images of a region where is adjacent to an interface between the agarose well of MAC 2.0™ and the antimicrobial agents well, over time. […] In the AST method according to the inventive concept, minimal inhibitory concentration (MIC) was measured using the changes in morphology and growth pattern of the four reference strains (i.e., E. coli ATCC 25922, S. aureus ATCC 29213, P. aeruginosa ATCC 27853, and E. faecalis ATCC 29212) and was compared with MIC quality control (QC) per CLSI guidelines.

[6] = tested on: E. coli ATCC 25922; experiment: as above; assay type: cell-based; details: time to result 3 hr
Description: as §2

[7] = tested on: E. faecalis ATCC 29212; details: time to result 16~20 hr, cited from earlier work
[8] = tested on: S. aureus ATCC 29213; experiment: AST by analysis of changes in morphology and growth pattern of a microbial cell (MAC 2.0 chip imaging); assay type: cell-based; details: RRG = relatively rapid growth, RSG = relatively slow growth
Description: as §1

[9] = tested on: E. faecalis ATCC 29212; experiment: as above; assay type: cell-based; details: RRG = relatively rapid growth, RSG = relatively slow growth
Description: as §1

[10] = tested on: S. aureus ATCC 29213; details: time to result 16~20 hr; cited from earlier work
[11] = tested on: S. aureus ATCC 29213; experiment: MIC by the proposed method (SCMA), from morphology and growth pattern changes; assay type: cell-based
Description: as §2

[12] = tested on: E. faecalis ATCC 29212; experiment: as above; assay type: cell-based
Description: as §2

[13] = time to result 4 hr, unit assumed

Compound	CLSI QC range (MIC) [1]	CLSI QC range (MIC) [2]	Criteria (change in morphology and growth pattern) [3]	Criteria (change in morphology and growth pattern) [4]	SCMA Results (MIC) ([6]; unit assumed) [µg/mL]	CLSI QC range (MIC) [7]	Criteria (change in morphology and growth pattern) [9]	SCMA Results (MIC) ([12]; time to result 4 hr)	other results
NCC[C@H](O)C(=O)N[C@@H]1C[C@H](N)[C@@H](O[C@H]2O[C@H](CN)[C@@H](O)[C@H](O)[C@H]2O)[C@H](O)[C@H]1O[C@H]1O[C@H](CO)[C@@H](O)[C@H](N)[C@H]1O [Amikacin]	1~4	0.5~4	Normal	Normal growth	–	–	–	–	SCMA Results (MIC) [5]: 1~2; SCMA Results (MIC) [6]: 0.5~1
C[C@H]1[C@H](NC(=O)/C(=N\OC(C)(C)C(=O)O)c2csc(N)n2)C(=O)N1S(=O)(=O)O [Aztreonam]	2~8	0.06~0.25	Filament	Filament	0.12	–	–	–	SCMA Results (MIC) [5]: 2~4
Cc1nnc(SCC2=C(C(=O)O)N3C(=O)[C@@H](NC(=O)Cn4cnnn4)[C@H]3SC2)s1 [Cefazolin]	–	1~4	–	Filament	2	–	–	–	–
CO/N=C(\C(=O)N[C@@H]1C(=O)N2C(C(=O)[O-])=C(C[N+]3(C)CCCC3)CS[C@H]12)c1csc(N)n1 [Cefepime]	0.5~4	0.015~0.12	Filament	Filament	–	–	–	–	SCMA Results (MIC) [5]: 0.5~2; SCMA Results (MIC) [6]: 0.03~0.06
CO/N=C(\C(=O)N[C@@H]1C(=O)N2C(C(=O)O)=C(COC(C)=O)CS[C@H]12)c1csc(N)n1 [Cefotaxime]	8~32	–	Filament	Filament	0.06	–	–	–	SCMA Results (MIC) ([5]; unit assumed): 16 µg/mL
CO[C@@]1(NC(=O)Cc2cccs2)C(=O)N2C(C(=O)O)=C(COC(N)=O)CS[C@@H]21 [Cefoxitin]	–	2~8	–	Filament	2	–	–	–	–
CC(C)(O/N=C(\C(=O)N[C@@H]1C(=O)N2C(C(=O)[O-])=C(C[n+]3ccccc3)CS[C@H]12)c1csc(N)n1)C(=O)O [Ceftazidime]	1~4	0.06~0.5	Filament formation	Filament	0.5	–	–	–	SCMA Results (MIC) [5]: 2~4
CC[C@H]1OC(=O)[C@H](C)[C@@H](O[C@H]2C[C@@](C)(OC)[C@@H](O)[C@H](C)O2)[C@H](C)[C@@H](O[C@@H]2O[C@H](C)C[C@H](N(C)C)[C@H]2O)[C@](C)(O)C[C@@H](C)C(=O)[C@H](C)[C@@H](O)[C@]1(C)O [Erythromycin]	–	–	–	–	–	1~4	RSG	–	Criteria (change in morphology and growth pattern) [8]: RSG; CLSI QC range (MIC) [10]: 0.25~1; SCMA Results (MIC) [11, 13]: 0.25 µg/mL; SCMA Results (MIC) ([12]; 6 hr): 1 (6 hr)
C[C@@H](O)[C@H]1C(=O)N2C(C(=O)O)=C(SCCN=CN)C[C@H]12 [Imipenem]	–	–	–	–	0.12	–	–	–	SCMA Results (MIC) [11, 13]: 0.03 µg/mL; SCMA Results (MIC) ([5]; unit assumed): 1 µg/mL
C[C@H]1COc2c(N3CCN(C)CC3)c(F)cc3c(=O)c(C(=O)O)cn1c23 [Levofloxacin]	–	–	–	–	–	–	–	1 µg/mL	SCMA Results (MIC) ([11]; time to result 4 hr): 0.12~0.25
CC(=O)NC[C@H]1CN(c2ccc(N3CCOCC3)c(F)c2)C(=O)O1 [Linezolid]	–	–	–	–	–	1~4	RSG	1~2	Criteria (change in morphology and growth pattern) [8]: RSG; Criteria (change in morphology and growth pattern) ([9]; listed as linezolid): Relatively slow growth (RSG); CLSI QC range (MIC) [10]: 1~4; SCMA Results (MIC) ([11]; time to result 4 hr): 1~4
C[C@@H](O)[C@H]1C(=O)N2C(C(=O)O)=C(S[C@@H]3CN[C@H](C(=O)N(C)C)C3)[C@H](C)[C@H]12 [Meropenem]	0.25~1	–	Swelling	–	–	–	–	–	SCMA Results (MIC) ([5]; unit assumed): 1 µg/mL
CCn1cc(C(=O)O)c(=O)c2cc(F)c(N3CCNCC3)cc21 [Norfloxacin]	–	0.03~0.12	–	Normal	–	2~8	RRG	2~4	SCMA Results (MIC) [6]: 0.03~0.06
Cc1onc(-c2ccccc2)c1C(=O)N[C@@H]1C(=O)N2[C@@H]1SC(C)(C)[C@@H]2C(=O)O [Oxacillin]	–	–	–	–	–	–	–	–	Criteria (change in morphology and growth pattern) [8]: RRG; CLSI QC range (MIC) [10]: 0.12~0.5; SCMA Results (MIC) [11, 13]: 0.5 µg/mL
CCN1CCN(C(=O)N[C@@H](C(=O)N[C@@H]2C(=O)N3[C@@H]2SC(C)(C)[C@@H]3C(=O)O)c2ccccc2)C(=O)C1=O [Piperacillin]	1~8	1~4	Filament	Filament formation	2	–	–	–	SCMA Results (MIC) [5]: 4~8
CO[C@H]1/C=C/O[C@@]2(C)Oc3c(C)c(O)c4c(O)c(c(/C=N/N5CCN(C)CC5)c(O)c4c3C2=O)NC(=O)/C(C)=C\C=C\[C@H](C)[C@H](O)[C@@H](C)[C@@H](O)[C@@H](C)[C@H](OC(C)=O)[C@@H]1C [Rifampin]	–	–	–	–	–	0.5~4	RSG	0.5 µg/mL	Criteria (change in morphology and growth pattern) [8]: RSG; CLSI QC range (MIC) [10]: 0.004~0.015; SCMA Results (MIC) ([11]; 6 hr): 0.004~0.08 (6 hr)
[H]/N=C(/N)N[C@H]1[C@H](O)[C@@H](O)[C@H](O[C@@H]2O[C@@H](C)[C@](O)(C=O)[C@H]2O[C@@H]2O[C@@H](CO)[C@H](O)[C@@H](O)[C@@H]2NC)[C@@H](N/C(N)=N\[H])[C@@H]1O [Streptomycin High Level, Streptomycin]	–	–	–	–	–	–	Normal	≤ 500 µg/mL	CLSI QC range (MIC) ([7]; unit assumed): ≤ 500 µg/mL
CC1(C)S[C@@H]2[C@H](NC(=O)[C@H](C(=O)O)c3ccsc3)C(=O)N2[C@H]1C(=O)O [Ticarcilin]	8~32	–	Filament	–	–	–	–	–	SCMA Results (MIC) ([5]; unit assumed): 16 µg/mL
NC[C@H]1O[C@H](O[C@H]2[C@H](O)[C@@H](O[C@H]3O[C@H](CO)[C@@H](O)[C@H](N)[C@H]3O)[C@H](N)C[C@@H]2N)[C@H](N)C[C@@H]1O [Tobramycin]	0.25~1	–	Normal	–	–	–	–	–	–
CN[C@H](CC(C)C)C(=O)N[C@H]1C(=O)N[C@@H](CC(N)=O)C(=O)N[C@H]2C(=O)N[C@H]3C(=O)N[C@H](C(=O)N[C@H](C(=O)O)c4cc(O)cc(O)c4-c4cc3ccc4O)[C@H](O)c3ccc(c(Cl)c3)Oc3cc2cc(c3O[C@@H]2O[C@H](CO)[C@@H](O)[C@H](O)[C@H]2O[C@H]2C[C@](C)(N)[C@H](O)[C@H](C)O2)Oc2ccc(cc2Cl)[C@H]1O [Vancomycin]	–	–	–	–	–	1~4	Normal growth	2~4	Criteria (change in morphology and growth pattern) [8]: normal; CLSI QC range (MIC) [10]: 0.5~2; SCMA Results (MIC) [11, 13]: 1 µg/mL
Penicillin	–	–	–	–	–	1~4	Normal	1~2	Criteria (change in morphology and growth pattern) [8]: Normal; CLSI QC range (MIC) [10]: 0.25~2; SCMA Results (MIC) [11, 13]: 0.5 µg/mL
Teicoplanin	–	–	–	–	–	0.25~1	Normal	0.5 µg/mL	–
